Assay results as given in patent US11083196B2, “Microbiocidal oxadiazole derivatives” (SYNGENTA PARTICIPATIONS AG, priority 2016, dated 2021).

Columns and labels:
Phakopsora pachyrhizi = experiment: Fungicidal activity against Phakopsora pachyrhizi / soybean / leaf disc preventative (Asian soybean rust); type: in vivo; conditions: foliar, 288 h, soybean leaf disks, inoculated one day after application, assessed 12-14 days after application, compared to untreated control
Description: Leaf disks or leaf segments of various plant species are cut from plants grown in a greenhouse. The cut leaf disks or segments are placed in multiwell plates (24-well format) onto water agar. The leaf disks are sprayed with a test solution before (preventative) or after (curative) inoculation. Compounds to be tested are prepared as DMSO solutions (max. 10 mg/ml) which are diluted to the appropriate concentration with 0.025% Tween20 just before spraying. The inoculated leaf disks or segments are incubated under defined conditions (temperature, relative humidity, light, etc.) according to the respective test system. A single evaluation of disease level is carried out 3 to 14 days after inoculation, depending on the pathosystem. Percent disease control relative to the untreated check leaf disks or segments is then calculated. Soybean leaf disks are placed on water agar in multiwell plates (24-well format) and sprayed with the formulated test compound diluted in water. One day after application leaf discs are inoculated by spraying a spore suspension on the lower leaf surface. After an incubation period in a climate cabinet of 24-36 hours in darkness at 20° C. and 75% rh leaf disc are kept at 20° C. with 12 h light/day and 75% rh. The activity of a compound is assessed as percent disease control compared to untreated when an appropriate level of disease damage appears in untreated check leaf disks (12-14 days after application).

[1] = system: Puccinia recondita f. sp. tritici; experiment: Fungicidal activity against Puccinia recondita f. sp. tritici / wheat / leaf disc preventative (brown rust); type: in vivo; conditions: foliar, 168 h, wheat leaf segments cv. Kanzler, inoculated 1 day after application, assessed 7-9 days after application, compared to untreated control
How it was run: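 Wheat leaf segments (cv. Kanzler) on water agar sprayed with compound diluted from DMSO stock in water/0.025% Tween20, then inoculated with P. recondita spores 1 day later. Incubated at 19 °C, 75% rh, 12 h light/dark. Percent disease control versus untreated assessed 7-9 days after application.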

[2] = system: Glomerella lagenarium (Colletotrichum lagenarium); experiment: Fungicidal activity against Glomerella lagenarium (Colletotrichum lagenarium), liquid culture / cucumber / preventative (anthracnose); type: cell-based; conditions: Colletotrichum orbiculare, liquid culture (PDB), growth inhibition measured photometrically 3-4 days after application, compared to untreated control
How it was run: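 Glomerella lagenarium conidia in potato dextrose broth were exposed in 96-well plates to test compound diluted from DMSO stock with 0.025% Tween20 and incubated at 24 °C. Growth inhibition was read photometrically 3–4 days after application, as percent activity relative to untreated check.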

[3] = system: Puccinia recondita f. sp. tritici; experiment: Fungicidal activity against Puccinia recondita f. sp. tritici / wheat / leaf disc curative (brown rust); type: in vivo; conditions: foliar, 144 h, wheat leaf segments cv. Kanzler, applied 1 day after inoculation, assessed 6-8 days after application, compared to untreated control
Description: Leaf disks or leaf segments of various plant species are cut from plants grown in a greenhouse. The cut leaf disks or segments are placed in multiwell plates (24-well format) onto water agar. The leaf disks are sprayed with a test solution before (preventative) or after (curative) inoculation. Compounds to be tested are prepared as DMSO solutions (max. 10 mg/ml) which are diluted to the appropriate concentration with 0.025% Tween20 just before spraying. The inoculated leaf disks or segments are incubated under defined conditions (temperature, relative humidity, light, etc.) according to the respective test system. A single evaluation of disease level is carried out 3 to 14 days after inoculation, depending on the pathosystem. Percent disease control relative to the untreated check leaf disks or segments is then calculated. Wheat leaf segments cv. Kanzler are placed on agar in multiwell plates (24-well format). The leaf segments are inoculated with a spore suspension of the fungus. Plates are stored in darkness at 19° C. and 75% rh. The formulated test compound diluted in water is applied 1 day after inoculation. The leaf segments are incubated at 19° C. and 75% rh under a light regime of 12 h light/12 h darkness in a climate cabinet and the activity of a compound is assessed as percent disease control compared to untreated when an appropriate level of disease damage appears in untreated check leaf segments (6-8 days after application).

Structure (SMILES) | pest or weed control at 200 ppm (Phakopsora pachyrhizi) [%] | pest or weed control at 200 ppm [1] [%] | melting point [°C] | inhibition of growth at 20 ppm [2] [%] | pest or weed control at 200 ppm [3] [%]
COCC1=NOC(c2ccc(-c3noc(C(F)(F)F)n3)cc2)C1 (stereo not drawn) [Compound A-9, 3-[4-[3-(methoxymethyl)-4,5-dihydroisoxazol-5-yl]phenyl]-5-(trifluoromethyl)-1,2,4-oxadiazole] | ≥ 80 | ≥ 80 | 59 to 63 | ≥ 80 | ≥ 80
CC1(C)CN=C(c2ccc(-c3noc(C(F)(F)F)n3)cc2)O1 [Compound A-21, 3-[4-(5,5-dimethyl-4H-oxazol-2-yl)phenyl]-5-(trifluoromethyl)-1,2,4-oxadiazole] | ≥ 80 | ≥ 80 | 178 to 180 | ≥ 80 | ≥ 80
FC(F)(F)c1nc(-c2ccc(-c3ccnc(Cl)c3)cc2)no1 [Compound D-26, 3-[4-(2-chloro-4-pyridyl)phenyl]-5-(trifluoromethyl)-1,2,4-oxadiazole] | ≥ 80 | ≥ 80 | 110 to 115 | ≥ 80 | ≥ 80
